A short description of the data set: UV absorption (λmax and specific absorbance E1^1). Type of data set: physicochemical. The conditions noted are these: for λmax.: UV absorption maximum, no unit or solvent printed; for E1^1: specific absorbance at λmax, solvent not given.

Take `N#C/C(=C/C=C(c1ccccc1)c1ccccc1)C(=O)OCCOC(=O)/C(C#N)=C\C=C(c1ccccc1)c1ccccc1` [Example 3]: the λmax. turned out to be 354 and the “E1^1” value turned out to be 850.

As for `CCOC(=O)/C(=C/C=C(c1ccccc1)c1ccccc1)C(=O)OCCOC(=O)/C(=C\C=C(c1ccccc1)c1ccccc1)C(=O)OCC` [Example 2], the λmax. was 336 and the “E1^1” value is listed as 800.

The record behind these values is patent US6436373B1, “Oligomeric diarylbutadienes” (BASF Aktiengesellschaft, priority 1998, dated 2002).
